Data from patent US11730720B2, “ALK5 inhibitors” (THERAVANCE BIOPHARMA R&D IP, LLC, priority 2018, dated 2023).

Key:
[1] = target: T1, recombinant human ALK5 (TGF-βR1) protein (Homo sapiens, UniProt P36897); assay: Biochemical ALK5 (TGF-βR1) assay to measure pKi (LANCE Ultra ULight kinase assay); conditions: apparent pKi, converted from pIC50 using the Cheng-Prusoff equation
T1 construct: purchased Life Technologies PR9075A
T1 sequence (P36897 34-503): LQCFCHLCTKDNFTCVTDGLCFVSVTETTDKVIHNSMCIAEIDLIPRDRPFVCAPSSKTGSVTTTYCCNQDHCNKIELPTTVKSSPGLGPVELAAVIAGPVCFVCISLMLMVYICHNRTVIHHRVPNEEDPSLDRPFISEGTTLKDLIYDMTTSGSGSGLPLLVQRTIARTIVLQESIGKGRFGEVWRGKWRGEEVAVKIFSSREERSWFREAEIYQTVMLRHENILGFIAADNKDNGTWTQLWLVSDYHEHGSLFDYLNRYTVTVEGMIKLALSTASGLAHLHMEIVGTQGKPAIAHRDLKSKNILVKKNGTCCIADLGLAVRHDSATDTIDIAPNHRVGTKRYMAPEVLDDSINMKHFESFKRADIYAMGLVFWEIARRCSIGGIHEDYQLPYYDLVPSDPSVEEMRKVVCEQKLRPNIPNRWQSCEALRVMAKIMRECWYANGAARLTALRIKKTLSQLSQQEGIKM
Procedure, shortened: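 TR-FRET kinase format: compound dose range 10 μM–25 pM equilibrated 60 min with human ALK5 and ULight-labelled topoisomerase 2α peptide in HEPES/MgCl2 buffer pH 7.5 with DTT. Reaction started with ATP (125 μM stock, 5× final), 60 min at 37° C, stopped with EDTA/Eu-anti-phospho antibody; pKi derived from pIC50 via Cheng-Prusoff.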

[2] = test system: TGF-β-stimulated SMAD3 phosphorylation in BEAS-2B cells; assay: Cellular ALK5 potency assay, inhibition of TGF-β stimulated pSMAD3 formation in BEAS-2B cells; format: cell-based; conditions: Homo sapiens, inhibition of TGF-β (10 ng/mL) stimulated pSMAD3 formation, 1 hour compound incubation, read-out: BEAS2B pIC50 (converted)
Procedure, shortened: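 Phospho-SMAD3 was quantified by AlphaLISA in lysates of human lung epithelial BEAS-2B cells. Compound was added 1 h (37 °C, HEPES/BSA-supplemented HBSS) before a 30 min challenge with 10 ng/mL TGF-β. Values are pIC50 relative to stimulated cells without compound.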

Row | SMILES | Ki [1] [nM] | IC50 [2] [nM]
1 | Fc1cc(F)c(-c2[nH]cnc2-c2ccc3ncc(NCCN4CCNCC4)cc3n2)cc1Cl [Compound 7-1, 6-(5-(5-chloro-2,4-difluorophenyl)-1H-imidazol-4-yl)-N-(2-(piperazin-1-yl)ethyl)-1,5-naphthyridin-3-amine] | 0.0398 to 0.316 | 25.1 to 158
2 | Cn1cccc(-c2cnc3ccc(-c4c[nH]nc4-c4ccc(F)c(F)c4)nc3c2)c1=O [Compound 8-16, 3-[6-[3-(3,4-difluorophenyl)-1H-pyrazol-4-yl]-1,5-naphthyridin-3-yl]-1-methyl-pyridin-2-one] | 3.98 to 31.6 | 25.1 to 158
3 | Fc1ccc(Cl)cc1-c1n[nH]cc1-c1ccc2ncc(-c3nc4n(n3)CCNC4)cc2n1 [Compound 1-100, 2-(3-(5-chloro-2-fluorophenyl)-1H-pyrazol-4-yl)-7-(5,6,7,8-tetrahydro-[1,2,4]triazolo[1,5-a]pyrazin-2-yl)-1,5-naphthyridine] | 0.0398 to 0.316 | 25.1 to 158
4 | CNC(=O)C1CN(c2cnc3ccc(-c4c[nH]nc4-c4cc(Cl)ccc4F)nc3c2)CCN1C(C)C (racemic) [Compound 1-78, rac-(2R)-4-[6-[3-(5-chloro-2-fluoro-phenyl)-1H-pyrazol-4-yl]-1,5-naphthyridin-3-yl]-1-isopropyl-N-methyl-piperazine-2-carboxamide] | 0.0398 to 0.316 | 25.1 to 158
5 | Fc1ccc(Cl)cc1-c1[nH]cnc1-c1ccc2ncc(Nc3ccc(N4CCNCC4)cn3)cc2n1 [Compound 2-4, 6-[5-(5-chloro-2-fluoro-phenyl)-1H-imidazol-4-yl]-N-(5-piperazin-1-yl-2-pyridyl)-1,5-naphthyridin-3-amine] | 0.0398 to 0.316 | 25.1 to 158
6 | CN1CCN(C2CCN(c3cnc4ccc(-c5c[nH]nc5-c5cc(Cl)ccc5F)cc4c3)CC2)CC1 [Compound 16-4, 6-[3-(5-chloro-2-fluoro-phenyl)-1H-pyrazol-4-yl]-3-[4-(4-methylpiperazin-1-yl)-1-piperidyl]quinoline] | 0.398 to 3.16 | 25.1 to 158
7 | N[C@@H]1CCCC[C@H]1n1cc(-c2cnc3ccc(-c4nc[nH]c4-c4ccc(F)c(F)c4)cc3c2)cn1 [Compound 23-3, (1R,2R)-2-(4-(6-(5-(3,4-difluorophenyl)-1H-imidazol-4-yl)quinolin-3-yl)-1H-pyrazol-1-yl)cyclohexan-1-amine] | 0.0398 to 0.316 | 25.1 to 158
8 | CNC(=O)[C@H]1CN(c2cnc3ccc(-c4c[nH]nc4-c4cc(Cl)c(F)cc4F)nc3c2)CCN1C(C)C [Compound 6-38, (2R)-4-[6-[3-(5-chloro-2,4-difluoro-phenyl)-1H-pyrazol-4-yl]-1,5-naphthyridin-3-yl]-1-isopropyl-N-methyl-piperazine-2-carboxamide] | 0.0398 to 0.316 | 25.1 to 158
9 | CC(C)N1CCN(CCNc2cnc3ccc(-c4c[nH]nc4-c4ccc(F)cc4F)nc3c2)CC1 [Compound 10-2, 6-(3-(2,4-difluorophenyl)-1H-pyrazol-4-yl)-N-(2-(4-isopropylpiperazin-1-yl)ethyl)-1,5-naphthyridin-3-amine] | 3.98 to 31.6 | 25.1 to 158
10 | O=C(O)Cn1cc(-c2cnc3ccc(-c4c[nH]nc4-c4ccc(F)c(F)c4)nc3c2)cn1 [Compound 8-18, 2-[4-[6-[3-(3,4-difluorophenyl)-1H-pyrazol-4-yl]-1,5-naphthyridin-3-yl]pyrazol-1-yl]acetic acid] | 0.398 to 3.16 | 25.1 to 158
11 | Fc1ccc(Cl)cc1-c1[nH]cnc1-c1ccc2ncc(-c3nc4n(n3)CCNC4)cc2c1 [Compound 17-13, 6-[5-(5-chloro-2-fluoro-phenyl)-1H-imidazol-4-yl]-3-(5,6,7,8-tetrahydro-[1,2,4]triazolo[1,5-a]pyrazin-2-yl)quinoline] | 0.0398 to 0.316 | ≤ 20
12 | COCc1cccc(-c2n[nH]cc2-c2ccc3ncc(N4CCC(N5CCN(C)CC5)CC4)cc3n2)c1 [Compound 14-2, 2-[3-(3-(methoxymethyl)phenyl]-1H-pyrazol-4-yl]-7-[4-(4-methylpiperazin-1-yl)-1-piperidyl]-1,5-naphthyridine] | 0.398 to 3.16 | 25.1 to 158
13 | CN1CCN(C2CCN(c3cnc4ccc(-c5nc[nH]c5-c5cc(Cl)ccc5F)cc4c3)CC2)CC1 [Compound 17-7, 6-[5-(5-chloro-2-fluoro-phenyl)-1H-imidazol-4-yl]-3-[4-(4-methylpiperazin-1-yl)-1-piperidyl]quinoline] | 0.0398 to 0.316 | 25.1 to 158
14 | CN1CCN(C2CCN(c3cnc4ccc(-c5c(-c6cc(Cl)ccc6F)nc6ccccn56)nc4c3)CC2)CC1 [Compound 3-5, 2-[2-(5-chloro-2-fluoro-phenyl)imidazo[1,2-a]pyridin-3-yl]-7-[4-(4-methylpiperazin-1-yl)-1-piperidyl]-1,5-naphthyridine] | 0.0398 to 0.316 | 200 to 1260
15 | CN1CC2CN(c3cnc4ccc(-c5c[nH]nc5-c5cc(Cl)ccc5F)nc4c3)CC21 (centres unmarked) [Compound 1-74, 2-[3-(5-chloro-2-fluoro-phenyl)-1H-pyrazol-4-yl]-7-(6-methyl-3,6-diazabicyclo[3.2.0]heptan-3-yl)-1,5-naphthyridine] | 0.398 to 3.16 | 25.1 to 158
16 | CNC1CN(c2cnc3ccc(-c4c[nH]nc4-c4cc(Cl)ccc4F)nc3c2)C1 [Compound 1-49, 1-(6-(3-(5-chloro-2-fluorophenyl)-1H-pyrazol-4-yl)-1,5-naphthyridin-3-yl)-N-methylazetidin-3-amine] | 0.0398 to 0.316 | ≤ 20
17 | COCc1cccc(-c2n[nH]cc2-c2ccc3ncc(N4CCN(C(C)C)CC4)cc3n2)c1 [Compound 14-5, 7-(4-isopropylpiperazin-1-yl)-2-[3-[3-(methoxymethyl)phenyl]-1H-pyrazol-4-yl]-1,5-naphthyridine] | 3.98 to 31.6 | 25.1 to 158
18 | CC(C)N1CCN(CCNc2cnc3ccc(-c4nc[nH]c4-c4cccc(Cl)c4)cc3c2)CC1 [Compound 24-2, 6-(5-(3-chlorophenyl)-1H-imidazol-4-yl)-N-(2-(4-isopropylpiperazin-1-yl)ethyl)quinolin-3-amine] | 0.398 to 3.16 | 25.1 to 158
19 | Fc1cc(F)c(-c2n[nH]cc2-c2ccc3ncc(-c4cn(Cc5cnc6c(c5)CNCC6)nn4)cc3n2)cc1Cl [Compound 6-63, 2-[3-(5-chloro-2,4-difluoro-phenyl)-1H-pyrazol-4-yl]-7-[1-(5,6,7,8-tetrahydro-1,6-naphthyridin-3-ylmethyl)triazol-4-yl]-1,5-naphthyridine] | 0.0398 to 0.316 | 25.1 to 158
20 | NC1CCN(c2cnc3ccc(-c4c[nH]nc4-c4cc(Cl)ccc4F)nc3c2)C1 (centres unmarked) [Compound 1-55, 1-[6-[3-(5-chloro-2-fluoro-phenyl)-1H-pyrazol-4-yl]-1,5-naphthyridin-3-yl]pyrrolidin-3-amine] | ≤ 0.0316 | ≤ 20
21 | Fc1cc(F)c(-c2n[nH]cc2-c2ccc3ncc(-c4cn5c(n4)CNCC5)cc3n2)cc1Cl [Compound 6-52, 2-[3-(5-chloro-2,4-difluoro-phenyl)-1H-pyrazol-4-yl]-7-(5,6,7,8-tetrahydroimidazo[1,2-a]pyrazin-2-yl)-1,5-naphthyridine] | 0.0398 to 0.316 | 25.1 to 158
22 | Oc1cnc2ccc(-c3c[nH]nc3-c3cc(Cl)ccc3F)nc2c1 [Compound 1-102, 6-[3-(5-chloro-2-fluoro-phenyl)-1H-pyrazol-4-yl]-1,5-naphthyridin-3-ol] | 0.398 to 3.16 | ≤ 20
